In brackets after ≈: the same amount, converted by molar mass. Where two headings read alike, the source gives them in different places.
Columns and labels:
[1] = design: method as in PMID 33340279; conditions: available PK data, cited from earlier work
CYP3A4 = CYP3A4 (Homo sapiens, UniProt P08684); conditions: for IC50: read-out: IC50, CYP3A4
Procedure: The potential for opelconazole to inhibit CYP isoforms was tested in vitro in human liver microsomes. […] Preincubation of the human liver microsomes for periods of 0 min without NADPH and 30 min with NADPH, plus 30 min without NADPH were included to assess for a time-dependent inhibition effect. Two structurally diverse substrates (testosterone and midazolam) were tested to assess substrate-dependent inhibition.

OATP1B1 = molecular target: T1, OATP1B1 (Homo sapiens, UniProt Q9Y6L6); experiment: Transporter inhibition; type: in vitro ADME; conditions: 0.5 and 5 μM tested
T1 construct: expressed in transfected cells
T1 sequence (Q9Y6L6 1-691): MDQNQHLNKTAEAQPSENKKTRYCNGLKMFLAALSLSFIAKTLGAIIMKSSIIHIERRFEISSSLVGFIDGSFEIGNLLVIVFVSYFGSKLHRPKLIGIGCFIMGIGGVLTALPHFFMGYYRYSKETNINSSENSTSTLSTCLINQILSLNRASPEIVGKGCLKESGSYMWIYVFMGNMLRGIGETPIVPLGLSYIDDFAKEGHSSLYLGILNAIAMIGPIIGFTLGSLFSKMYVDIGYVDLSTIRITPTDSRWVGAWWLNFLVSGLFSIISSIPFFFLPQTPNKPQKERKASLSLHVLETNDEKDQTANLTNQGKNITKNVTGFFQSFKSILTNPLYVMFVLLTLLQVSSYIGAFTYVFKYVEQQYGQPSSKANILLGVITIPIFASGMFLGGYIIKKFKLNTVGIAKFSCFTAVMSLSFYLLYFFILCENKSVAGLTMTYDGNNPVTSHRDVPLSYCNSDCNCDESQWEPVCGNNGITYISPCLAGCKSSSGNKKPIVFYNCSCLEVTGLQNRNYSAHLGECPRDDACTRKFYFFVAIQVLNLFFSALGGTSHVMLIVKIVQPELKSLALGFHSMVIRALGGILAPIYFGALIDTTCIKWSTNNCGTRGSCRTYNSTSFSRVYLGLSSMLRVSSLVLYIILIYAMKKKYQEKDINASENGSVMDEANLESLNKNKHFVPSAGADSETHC
Procedure: (§1) Human transporter protein interactions with opelconazole as a potential substrate and/or inhibitor were assessed for the following key carrier transporters: organic anion transporters, OAT1 and OAT3; organic cation transporters, OCT1 and OCT2; OATP1B1 and OATP1B3; multidrug and toxin extrusion, MATE-1 and MATE2-K; key ATP-binding cassette (ABC) transporters including P-gp, breast cancer resistance protein (BCRP) and bile salt export pump (BSEP). Two concentrations of opelconazole, 0.5 and 5 μM, were tested using MDCKII cells, human embryonic kidney 293 cells and BSEP-transfected sf9 membrane vesicles and then analysed by LC-tandem MS to determine transporter inhibition and whether opelconazole was a transporter substrate. The viability of experimental test systems was confirmed with controls and known probe substrates and probe inhibitors.

OATP1B3 = molecular target: T2, OATP1B3 (Homo sapiens, UniProt Q9NPD5); experiment: Transporter inhibition; type: in vitro ADME; conditions: 0.5 and 5 μM tested
T2 construct: expressed in transfected cells
T2 sequence (Q9NPD5 1-702): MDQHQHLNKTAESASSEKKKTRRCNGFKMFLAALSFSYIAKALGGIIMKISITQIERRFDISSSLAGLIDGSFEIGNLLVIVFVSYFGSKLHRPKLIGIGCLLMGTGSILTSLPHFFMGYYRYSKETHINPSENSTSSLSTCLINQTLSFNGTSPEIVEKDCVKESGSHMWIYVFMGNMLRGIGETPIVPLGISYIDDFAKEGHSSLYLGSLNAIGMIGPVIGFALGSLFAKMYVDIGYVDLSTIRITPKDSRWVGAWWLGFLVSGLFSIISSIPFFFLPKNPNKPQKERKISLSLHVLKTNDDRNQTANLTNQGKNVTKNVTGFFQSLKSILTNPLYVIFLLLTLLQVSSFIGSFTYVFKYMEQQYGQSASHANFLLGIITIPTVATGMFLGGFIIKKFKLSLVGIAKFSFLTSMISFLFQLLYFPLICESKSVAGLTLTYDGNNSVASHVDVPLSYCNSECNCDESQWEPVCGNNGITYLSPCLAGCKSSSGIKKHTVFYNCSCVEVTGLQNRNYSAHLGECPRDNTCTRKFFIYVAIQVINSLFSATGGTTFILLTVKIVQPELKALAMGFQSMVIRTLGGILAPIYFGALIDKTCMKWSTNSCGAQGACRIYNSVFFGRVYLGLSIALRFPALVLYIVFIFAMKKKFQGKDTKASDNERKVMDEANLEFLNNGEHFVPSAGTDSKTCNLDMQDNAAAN
Procedure: as §1

[2] = Phase 1 study: safety and tolerability; type: in vivo, human
Procedure: Safety and tolerability were assessed by monitoring the incidence, nature and severity of adverse events (AEs) as well as by vital-sign measurements, 12-lead ECGs, clinical laboratory testing (haematology, chemistry and urinalysis), physical examination and lung function testing [forced expiratory volume in one second (FEV1) and forced vital capacity (FVC)].

[3] = design: method as in PMID 33340279; conditions: cited from earlier work
CYP2C9 = CYP2C9 (Homo sapiens, UniProt P11712); experiment: Reaction phenotyping with recombinant CYP enzymes (opelconazole as substrate); type: in vitro ADME; conditions: incubated with 0.01 and 0.1 µM opelconazole
Procedure: The testing of opelconazole as a potential substrate of CYP1A2, 2B6, 2C8, 2C9, 2C19, 2D6 and 3A4 was determined in vitro using recombinant CYP enzymes. Two concentrations of opelconazole (0.01 and 0.1 µM) were tested with each of the seven CYPs.
The relative contributions of CYP3A4 and CYP2C9 were ∼75% and 25%, respectively, when incubated with 0.01 and 0.1 µM opelconazole.

CYP2B6 = experiment: CYP induction, mRNA endpoint, cryopreserved human hepatocytes; type: in vitro ADME; conditions: any of the three donors
Procedure: The hepatocyte cells were dosed with opelconazole (0.012, 0.03, 0.12, 0.3, 1.2 and 3 μM) and positive control compounds (omeprazole for CYP1A2 and rifampicin for CYP3A4).

[4] = substrate midazolam, 30-min preincubation

CYP3A4, sequence (P08684 whole entry, canonical isoform): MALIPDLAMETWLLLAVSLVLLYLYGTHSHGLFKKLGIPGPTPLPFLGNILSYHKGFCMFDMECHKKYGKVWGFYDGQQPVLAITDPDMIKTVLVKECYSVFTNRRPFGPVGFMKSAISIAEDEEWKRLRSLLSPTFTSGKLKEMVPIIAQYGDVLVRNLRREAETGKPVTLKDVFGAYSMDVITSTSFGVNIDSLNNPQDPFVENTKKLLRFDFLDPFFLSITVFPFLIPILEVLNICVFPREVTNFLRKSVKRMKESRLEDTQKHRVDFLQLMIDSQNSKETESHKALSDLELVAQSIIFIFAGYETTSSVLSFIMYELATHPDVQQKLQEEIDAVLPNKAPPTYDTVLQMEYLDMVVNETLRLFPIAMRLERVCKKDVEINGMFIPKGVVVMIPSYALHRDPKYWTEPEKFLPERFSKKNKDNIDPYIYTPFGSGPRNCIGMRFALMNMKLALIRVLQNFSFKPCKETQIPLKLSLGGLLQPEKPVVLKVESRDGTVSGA
CYP2C9, sequence (P11712 whole entry): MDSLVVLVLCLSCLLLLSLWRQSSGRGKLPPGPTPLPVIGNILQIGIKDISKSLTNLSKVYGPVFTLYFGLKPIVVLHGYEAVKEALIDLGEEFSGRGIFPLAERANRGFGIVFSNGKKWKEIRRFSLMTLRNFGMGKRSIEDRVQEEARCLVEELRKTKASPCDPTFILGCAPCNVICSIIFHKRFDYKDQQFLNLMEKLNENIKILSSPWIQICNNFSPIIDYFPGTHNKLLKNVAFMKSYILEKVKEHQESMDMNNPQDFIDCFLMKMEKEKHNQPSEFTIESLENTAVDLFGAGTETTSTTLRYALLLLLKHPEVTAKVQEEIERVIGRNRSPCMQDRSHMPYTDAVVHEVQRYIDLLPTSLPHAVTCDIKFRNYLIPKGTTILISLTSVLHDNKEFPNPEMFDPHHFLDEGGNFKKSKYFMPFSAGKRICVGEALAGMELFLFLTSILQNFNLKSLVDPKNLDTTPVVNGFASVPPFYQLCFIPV

## Cc1cc(N2CCN(c3ccc(C(=O)Nc4ccc(F)cc4)cc3)CC2)ccc1OC[C@@H]1CO[C@@](Cn2cncn2)(c2ccc(F)cc2F)C1 [opelconazole]
[1]
  Cmax (low systemic exposure): 1 ng/mL
[1]; read-out: Cmax (low systemic exposure)
  Cmax: 1.6 nM
CYP3A4; [4]
  IC50: ~150 nM
  IC50, CYP3A4: ~0.102 µg/mL (≈ 0.149 µM)
  time-dependent inhibition of CYP3A4: not evident
CYP3A4; substrate midazolam, without pre-incubation, 0.001–0.25 µM
  IC50: 123 nM
CYP3A4; substrate testosterone, 30-min preincubations with or without NADPH
  IC50: 150 nM
CYP3A4; substrate testosterone, without pre-incubation, 0.001–0.25 µM
  IC50: > 250 nM
OATP1B1
  inhibitory interaction with OATP1B1: negligible inhibitory interactions
OATP1B3
  inhibitory interaction with OATP1B3: negligible inhibitory interactions
[2]; 5/24 participants, all mild, 14.8 mg twice daily for 14 days with midazolam/caffeine
  headache considered related to inhaled opelconazole, participants: 20.8%
[2]; any participant who received opelconazole
  post-dose acute bronchospasm: no evidence
[2]; any timepoint during the study
  changes in lung function (FEV1 and FVC): No clinically significant changes
[2]; healthy volunteers N = 24, 14.8 mg twice daily for 14 days
  deaths or serious AEs: No deaths or serious AEs were reported
[2]; inhaled 14.8 mg twice daily
  tolerability: generally well tolerated
[3]
  plasma protein binding (PPB): 97%
CYP2C9
  relative contribution of CYP2C9 to metabolism of opelconazole: ~25%
CYP2B6
  CYP2B6 mRNA expression: did not increase mRNA expression

Reference: article PMC12670164, “In vitro and clinical data demonstrate negligible risk of drug–drug interactions with opelconazole, a novel inhaled antifungal agent” (Journal of Antimicrobial Chemotherapy, 2025)
